# From patent publication US20250346588A1, “IMIDAZOPYRIDINE AND OXAZOLOPYRIDINE DERIVATIVES AND ANALOGS THEREOF, METHODS OF PREPARATION THEREOF, METHODS OF HIF-1/2A PATHWAY INHIBITION, AND INDUCTION OF FERROPTOSIS” (KUDA THERAPEUTICS, INC., priority 2022, published 2025)
# Test system: 786-0 cells
# Test: Resazurin cell viability assay, with or without DFO and other inhibitors
# Type: cell-based, human
# Procedure: Screens for inhibitory activity of compounds described herein were performed using 786-0 ccRCC cells that stably express HRE-Luc: 5 copies of the hypoxia-responsive element (HRE) fused to the pGL3 luciferase reporter (Promega Corp, Madison WI). 786-0 cells are pVHL deficient and thus constitutively express HIF-2α independently of cellular oxygen tension. Since 786-0 cells lack HIF-1α, HRE-driven luciferase activity is primarily HIF-2α driven, and has been previously validated. Cells were maintained at log phase growth in […] (DMEM) with 10% FBS in a humidified incubator at 37° C. with 5% CO2. For screening assays, cells were seeded at a density of 4,000 cells in 50 μl of complete media/well in quadruplicate wells/point in a 96-well plate. After 24 h, 50 μl of a 2× concentration of test compound was added to each well. Compounds were diluted from a 5-10 mM stock in DMSO and final concentrations of DMSO in each well in controls and treated wells were kept constant at ≤0.6% DMSO. After 24 h treatment, luciferase activity was measured using the Steady-Glo Luciferase assay system (Promega Corp) according to the manufacturer's protocol. Cell viability was measured in quadruplicate parallel wells using resazurin as recommended by the manufacturer (R&D systems, Minneapolis, MN). Data for luciferase and resazurin were normalized to DMSO treated controls (defining 100%) and wells containing assay reagent but no cells (defining 0%) and graphed using the log inhibitor versus normalized response option in Graphpad Prism 9.3.1 software. Representative data determined using Steady-Glo luciferase and resazurin are shown in FIGS. 1A and 1B respectively, with error bars showing SD. Filled diamonds, empty squares and empty triangles indicate treatment with 3, 8 and 22 respectively with results for HRE-Luc shown in FIG. 1A.
# In view of the increased cellular iron concentrations induced by the compounds described herein, the involvement of iron in mediating cell death was determined. Cell viability assays were performed as described in Example 2 using resazurin as a cell viability readout and performed in the absence or presence of 100 μM of the iron chelator, DFO (D9533, MilliporeSigma, St Louis, MO). […] Viability IC50 values are shown in brackets.
structure (smiles),measurement,setting,value
"COc1ccc(-c2nnc(Nc3nc4c(OC)nccc4[nH]3)o2)cc1OC [Compound 26HCL, N-(4-Methoxy-1H-imidazo[4,5-c]pyridin-2-yl)-5-(3,4-dimethoxyphenyl)-1,3,4-oxadiazol-2-amine]",mechanism of cell death,"24h, co-treatment with DFO, NAC, liproxstatin or ZVAD-FMK",iron-oxidant dependent and apoptosis/caspase-independent mechanism of cell death
same,effect of DFO co-treatment on compound-mediated loss of cell viability,"DFO 100 μM, FIG. 4B",protective effects of DFO
